Laboratory results as given in patent publication US6914045B2, “Glycopeptide antibiotics” (Wyeth Holdings Corporation, priority 2001, dated 2005).
≈ marks a conversion by molar mass, not a printed value.

Experiments:
Test in all cases: in vitro antibacterial evaluation, MIC by broth dilution
Format in all cases: cell-based
Escherichia coli = conditions: 18 hours at 35° C.
Enterococcus sp. = conditions: broth dilution, 18 hours at 35° C.
Method in brief: (§1)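 Following National Committee for Clinical Laboratory Standards recommendations (M7-A2), susceptibility was measured by dilution in Muller-Hinton II […]. Bacteria were seeded at 5×10^5 CFU/mL against compound concentrations from 64 down to 0.06 μg/mL.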

Staphylococcus sp. = conditions: broth dilution, 18 hours at 35° C.
Method in brief: as §1

Streptococcus sp. = conditions: broth dilution, 18 hours at 35° C.
Method in brief: as §1

MIC Escherichia coli (ATCC 25922) (Escherichia coli): >64 µg/mL
MIC Escherichia coli (GC 4559) (Escherichia coli): >64 µg/mL
MIC Escherichia coli (GC 4560) (Escherichia coli): 16 µg/mL (≈ 10.9 µM)
MIC Enterococcus avium (GC 4558) (Enterococcus sp.): 4 µg/mL (≈ 2.71 µM)
MIC Enterococcus faecalis (ATCC 29212) (Enterococcus sp.): 8 µg/mL (≈ 5.43 µM)
MIC Enterococcus faecalis (GC 2242) (Enterococcus sp.): 8 µg/mL (≈ 5.43 µM)
MIC Enterococcus faecalis (GC 2691) (Enterococcus sp.): 8 µg/mL (≈ 5.43 µM)
MIC Enterococcus faecalis (GC 3059) (Enterococcus sp.): 8 µg/mL (≈ 5.43 µM)
MIC Enterococcus faecalis (GC 4552) (Enterococcus sp.): 8 µg/mL (≈ 5.43 µM)
MIC Enterococcus faecalis (GC 4553) (Enterococcus sp.): 8 µg/mL (≈ 5.43 µM)
MIC Enterococcus faecalis (GC 4554) (Enterococcus sp.): 8 µg/mL (≈ 5.43 µM)
MIC Enterococcus faecalis (GC 6189) (Enterococcus sp.): 8 µg/mL (≈ 5.43 µM)
MIC Enterococcus faecium (GC 2243) (Enterococcus sp.): 4 µg/mL (≈ 2.71 µM)
MIC Enterococcus faecium (GC 4556) (Enterococcus sp.): 8 µg/mL (≈ 5.43 µM)
MIC Enterococcus faecium (GC 4557) (Enterococcus sp.): 4 µg/mL (≈ 2.71 µM)
MIC Enterococcus faecalis (ATCC 29212) (Enterococcus sp.; inoculum 5×10^5 CFU/mL, strain ATCC 29212): 8 µg/mL (≈ 5.43 µM)
MIC Enterococcus faecalis (GC 2242) (Enterococcus sp.; inoculum 5×10^5 CFU/mL, strain GC 2242): 8 µg/mL (≈ 5.43 µM)
MIC Enterococcus faecium (GC 2243) (Enterococcus sp.; inoculum 5×10^5 CFU/mL, strain GC 2243): 4 µg/mL (≈ 2.71 µM)
MIC Enterococcus faecalis (GC 2691) (Enterococcus sp.; inoculum 5×10^5 CFU/mL, strain GC 2691): 8 µg/mL (≈ 5.43 µM)
MIC Enterococcus faecalis (GC 3059) (Enterococcus sp.; inoculum 5×10^5 CFU/mL, strain GC 3059): 8 µg/mL (≈ 5.43 µM)
MIC Enterococcus faecalis (GC 4552) (Enterococcus sp.; inoculum 5×10^5 CFU/mL, strain GC 4552): 8 µg/mL (≈ 5.43 µM)
MIC Enterococcus faecalis (GC 4553) (Enterococcus sp.; inoculum 5×10^5 CFU/mL, strain GC 4553): 8 µg/mL (≈ 5.43 µM)
MIC Enterococcus faecalis (GC 4554) (Enterococcus sp.; inoculum 5×10^5 CFU/mL, strain GC 4554): 8 µg/mL (≈ 5.43 µM)
MIC Enterococcus faecium (GC 4556) (Enterococcus sp.; inoculum 5×10^5 CFU/mL, strain GC 4556): 8 µg/mL (≈ 5.43 µM)
MIC Enterococcus faecium (GC 4557) (Enterococcus sp.; inoculum 5×10^5 CFU/mL, strain GC 4557): 4 µg/mL (≈ 2.71 µM)
MIC Enterococcus avium (GC 4558) (Enterococcus sp.; inoculum 5×10^5 CFU/mL, strain GC 4558): 4 µg/mL (≈ 2.71 µM)
MIC Enterococcus faecalis (GC 6189) (Enterococcus sp.; inoculum 5×10^5 CFU/mL, strain GC 6189): 8 µg/mL (≈ 5.43 µM)
MIC Staphylococcus aureus (ATCC 29213) (Staphylococcus sp.; strain ATCC 29213): 4 µg/mL (≈ 2.71 µM)
MIC Staphylococcus aureus (GC 1131) (Staphylococcus sp.; strain GC 1131): 4 µg/mL (≈ 2.71 µM)
MIC Staphylococcus aureus (GC 3051) (Staphylococcus sp.; strain GC 3051): 8 µg/mL (≈ 5.43 µM)
MIC Staphylococcus aureus (GC 3053) (Staphylococcus sp.; strain GC 3053): 4 µg/mL (≈ 2.71 µM)
MIC Staphylococcus aureus (GC 4541) (Staphylococcus sp.; strain GC 4541): 4 µg/mL (≈ 2.71 µM)
MIC Staphylococcus aureus (GC 4542) (Staphylococcus sp.; strain GC 4542): 8 µg/mL (≈ 5.43 µM)
MIC Staphylococcus aureus-SMITH (GC 4543) (Staphylococcus sp.; strain GC 4543): 4 µg/mL (≈ 2.71 µM)
MIC Staphylococcus aureus (GC 4544) (Staphylococcus sp.; strain GC 4544): 8 µg/mL (≈ 5.43 µM)
MIC Staphylococcus aureus (GC 4545) (Staphylococcus sp.; strain GC 4545): 4 µg/mL (≈ 2.71 µM)
MIC Coagulase Negative Staphylococcus (GC 4547) (Staphylococcus sp.; strain GC 4547): 4 µg/mL (≈ 2.71 µM)
MIC Coagulase Negative Staphylococcus (GC 4548) (Staphylococcus sp.; strain GC 4548): 4 µg/mL (≈ 2.71 µM)
MIC Coagulase Negative Staphylococcus (GC 4549) (Staphylococcus sp.; strain GC 4549): 2 µg/mL (≈ 1.36 µM)
MIC Coagulase Negative Staphylococcus (GC 4551) (Staphylococcus sp.; strain GC 4551): 4 µg/mL (≈ 2.71 µM)
MIC Coagulase Negative Staphylococcus (GC 6257) (Staphylococcus sp.; strain GC 6257): 4 µg/mL (≈ 2.71 µM)
MIC Streptococcus agalactiae (GC 4564) (Streptococcus sp.): 2 µg/mL (≈ 1.36 µM)
MIC Streptococcus pneumoniae (ATCC 6301) (Streptococcus sp.): 0.5 µg/mL (≈ 0.339 µM)
MIC Streptococcus pneumoniae (GC 1894) (Streptococcus sp.): <0.06 µg/mL
MIC Streptococcus pneumoniae (GC 4565) (Streptococcus sp.): 0.25 µg/mL (≈ 0.17 µM)
MIC Streptococcus pyogenes (GC 4563) (Streptococcus sp.): 1 µg/mL (≈ 0.679 µM)
MIC Streptococcus pneumoniae (ATCC 6301) (Streptococcus sp.; inoculum 5×10^5 CFU/mL, strain ATCC 6301): 0.5 µg/mL (≈ 0.339 µM)
MIC Streptococcus pneumoniae (GC 1894) (Streptococcus sp.; inoculum 5×10^5 CFU/mL, strain GC 1894): <0.06 µg/mL
MIC Streptococcus pyogenes (GC 4563) (Streptococcus sp.; inoculum 5×10^5 CFU/mL, strain GC 4563): 1 µg/mL (≈ 0.679 µM)
MIC Streptococcus agalactiae (GC 4564) (Streptococcus sp.; inoculum 5×10^5 CFU/mL, strain GC 4564): 2 µg/mL (≈ 1.36 µM)
MIC Streptococcus pneumoniae (GC 4565) (Streptococcus sp.; inoculum 5×10^5 CFU/mL, strain GC 4565): 0.25 µg/mL (≈ 0.17 µM)
Structure (SMILES): CC(c1ccccc1)C1NC(=O)CNC(=O)C(CO)NC(=O)C(C(O)C2CNC(=N)N2C2OC(CO)C(O)C(O)C2O)NC(=O)C(C(O)C2CNC(=N)N2)NC(=O)C(Cc2ccc(OC3OC(CO)C(OC4OC(CO)C(O)C5OC6(CCCCCCCCCCCC6)OC45)C(O)C3O)cc2)NC1=O (stereo not shown) [Example 210a]
MIC Staphylococcus haemolyticus (GC 4546) (Staphylococcus sp.; strain GC 4546): 8 µg/mL (≈ 5.43 µM)
